Marks after values point to notes of the source that are not given here.

Data set [1] relates to rats. As to conditions: administered orally to rats; cited from earlier work.
The conditions of data set [2]: cited from earlier work.
Data set [3] concerns transient local cerebral ischemia animal model. As to the kind of experiment: Cranial neuroprotective action by oral administration in transient local cerebral ischemia animal model (MCAO). Type of data set: in vivo, sprague-dawly male rats. The protocol: The measurement of cranial neuroprotective action by oral administration of a sample in the transient local cerebral ischemia animal model was carried out as follows according to a known method.
Experimental animals were 7-week-old sprague-dawly male rats having a weight of 260 to 270 g and the experimental animals were adapted in the breeding room for 7 days before use under the environment in which the contrast cycle was controlled automatically by 12 hours. The temperature of the breeding room was maintained at 23±2° C., the humidity was 55±10%, and food and water were freely ingested.
In order to measure the neuroprotective action according to the oral administration of the sample, an animal model of cerebral ischemia was created. The middle cerebral artery occlusion (MCAO) surgery was performed to create the animal model of cerebral ischemia. […]
In order to measure the neuroprotective action of the sample according to the oral administration, the brain was excised 24 hours after the middle cerebral artery occlusion and stained with 2,3,5-triphenyltetrazolium chloride. […] The area of cerebral infarction (infarct area, mm^2) was measured using a computerized image analyzer, and the infarct volume (mm^3) was calculated by multiplying the total sum of the infarct area of each section by the thickness of the section. The measured values were expressed as mean±SEM (*p<0.05, **p<0.01).

As a reminder, the LD50 is the dose expected to kill half of the subjects tested. With `CC(C)[C@@H]1CC[C@@H](C)C[C@H]1O` (racemic) [dl-menthol], the LD50 in data set [1] was 3180 mg/kg. Also, the solubility in water entry in data set [2] is given as “rarely dissolved in water”.
Consider `CC1=NN(c2ccccc2)C(=O)C1` [MCI-186], for which the “Cerebral infarct volume (mm^3)” value in data set [3] (2 hours after induction of cerebral ischemia and 2 hours after reperfusion, brain excised 24 hours after MCAO, mean±SEM) is given as 184.2 ± 17.3** mm^3. The “Cranial nerve protection effect (%)” value in data set [3] (24 hours after MCAO, relative to physiological saline group) is 47.71%.
